Laboratory results taken from patent publication US7767704B2, “Antiviral 4-aminocarbonylamino-substituted imidazole compounds” (AiCuris GmbH & Co. KG, priority 2004, dated 2010).

Columns and labels:
[1] = system: HCMV; assay: Anti-HCMV (anti-human cytomegalovirus) cytopathogenicity test; type: cell-based; settings: Human betaherpesvirus 5, 144 h; HCMV-infected NHDF cells, M.O.I. 0.001-0.002, 6 days; inhibition of CPE by 50% vs untreated virus control
Procedure: (§1) Anti-HCMV (Anti-human Cytomegalovirus) Cytopathogenicity Tests
(§2) The test compounds are employed as 50 millimolar (mM) solutions in dimethyl sulphoxide (DMSO). Ganciclovir, foscarnet and cidofovir are used as reference compounds. After addition of in each case 2 μl of the 50, 5, 0.5 and 0.05 mM DMSO stock solutions to 98 μl portions of cell culture medium in row 2 A-H for duplicate determinations, 1:2 dilutions are carried out with 50 μl portions of medium up to row 11 of the 96-well plate. The wells in rows 1 and 12 each contain 50 μl of medium. 150 μl of a suspension of 1×10^4 cells (human prepuce fibroblasts [NHDF]) are pipetted into each of the wells (row 1=cell control) and, in rows 2-12, a mixture of HCMV-infected and uninfected NHDF cells (M.O.I.=0.001-0.002), i.e. 1-2 infected cells per 1000 uninfected cells. Row 12 (without substance) serves as virus control. The final test concentrations are 250-0.0005 μM. The plates are incubated at 37° C./5% CO2 for 6 days, i.e. until all the cells are infected in the virus controls (100% cytopathogenic effect [CPE]). The wells are then fixed and stained by adding a mixture of formalin and Giemsa's dye (30 minutes), washed with double-distilled water and dried in a drying oven at 50° C. The plates are then assessed visually using an overhead microscope (plaque multiplier from Technomara).
(§3) The following data can be acquired from the test plates: • CC50 (NHDF)=substance concentration in μM at which no visible cytostatic effects on the cells are evident by comparison with the untreated cell control; • EC50 (HCMV)=substance concentration in […] which inhibits the CPE (cytopathic effect) by 50% compared with the untreated virus control; • SI (selectivity index)=CC50 (NHDF)/EC50 (HCMV).

[2] = Cytostatic effect on NHDF cells in the anti-HCMV cytopathogenicity test; type: cell-based; settings: NHDF cells (human prepuce fibroblasts), 6 days incubation, visual assessment, concentration at which no visible cytostatic effects are evident
Procedure: as §1, §2, §3

Compound	EC50 [1]	CC50 at 6 days [2]
COc1ccc(C(C)NC(=O)c2nc(NC(=O)Nc3ccc(C)c(F)c3)cn2C)cn1 (stereo not shown) [Example 2, 4-({[(3-Fluoro-4-methylphenyl)amino]carbonyl}amino)-N-[1-(6-methoxypyridin-3-yl)ethyl]-1-methyl-1H-imidazole-2-carboxamide]	0.5 nM	94 µM
Cc1cc(Cl)ccc1NC(=O)Nc1cn(CC2CC2)c(C(=O)NCCCN2CCOCC2)n1 [Example 3, 4-({[(4-Chloro-2-methylphenyl)amino]carbonyl}amino)-1-(cyclopropylmethyl)-N-(3-morpholin-4-ylpropyl)-1H-imidazole-2-carboxamide]	3 nM	25 µM
Cc1cc(Cl)ccc1NC(=O)Nc1cn(CC2CC2)c(C(=O)NCCCn2cccn2)n1 [Example 11]	1 nM	25 µM
COCCOCCCNC(=O)c1nc(NC(=O)Nc2ccc(Cl)cc2C)cn1CC=C(C)C [Example 25]	1 nM	6.25 µM
COc1ccc(CNC(=O)c2nc(NC(=O)Nc3ccc(OC(F)(F)F)cc3)cn2CC2CC2)cc1 [Example 32]	1 nM	3.13 µM
O=C(Nc1ccc(OC(F)(F)F)cc1)Nc1cn(Cc2ccc(C(F)(F)F)cc2)c(C(=O)NCCO)n1 [Example 124, N-(2-Hydroxyethyl)-4-[({[4-(trifluoromethoxy)phenyl]amino}carbonyl)amino]-1-[4-(trifluoromethyl)benzyl]-1H-imidazole-2-carboxamide]	1.4 nM	9.4 µM
O=C(Nc1ccc(OC(F)(F)F)cc1)Nc1cn(Cc2ccc(C(F)(F)F)cc2)c(C(=O)NCCOC(=O)CN2CCOCC2)n1 [Example 139]	2.8 nM	4.7 µM
Cn1cc(NC(=O)Nc2ccc(OC(F)(F)F)cc2)nc1C(=O)NCCCC(F)(F)F [Example 152, 1-Methyl-N-(4,4,4-trifluorobutyl)-4-[({[4-(trifluoromethoxy)phenyl]amino}carbonyl)amino]-1H-imidazole-2-carboxamide]	1.9 nM	31 µM
